ChEMBL document CHEMBL4665731, “Antifungal trichothecene sesquiterpenes obtained from the culture broth of marine-derived Trichoderma cf. brevicompactum and their structure-activity relationship” (2020)
Converted amounts (≈) assume the structure as drawn.

How the values were obtained:
Format in all cases: functional
[1] = test system: Rhizopus arrhizus; experiment: Antifungal activity against Rhizopus oryzae NBRC 31005 assessed as reduction in fungal growth incubated for 24 hrs by CLSI broth microdilution method
[2] = test system: Cryptococcus neoformans; experiment: Antifungal activity against Cryptococcus neoformans ATCC 14116 assessed as reduction in fungal growth incubated for 72 hrs by CLSI broth microdilution method
[3] = test system: Aspergillus fumigatus; experiment: Antifungal activity against Aspergillus fumigatus NBRC 96918 assessed as reduction in fungal growth incubated for 48 hrs by CLSI broth microdilution method
[4] = test system: Candida albicans; experiment: Antifungal activity against Candida albicans NBRC1594 assessed as reduction in fungal growth incubated for 24 hrs by CLSI broth microdilution method

Compound: C[C@@H]1[C@H](O)[C@@H](C)/C=C/C=C/C=C/C=C/C=C/C=C/C=C/[C@H](O[C@@H]2O[C@H](C)[C@@H](O)[C@H](N)[C@@H]2O)C[C@@H]2O[C@](O)(C[C@@H](O)C[C@@H](O)[C@H](O)CC[C@@H](O)C[C@@H](O)CC(=O)O[C@H]1C)C[C@H](O)[C@H]2C(=O)O [AMPHOTERICIN B]
- MIC90 [1]: 1 µg/mL (≈ 1.08 µM)
- MIC90 [2]: 1 µg/mL (≈ 1.08 µM)
- MIC90 [3]: 2 µg/mL (≈ 2.16 µM)
- MIC90 [4]: 0.5 µg/mL (≈ 0.541 µM)
